Reference: ChEMBL document CHEMBL5120749, “Human estrogen receptor α antagonists, part 2: Synthesis driven by rational design, in vitro antiproliferative, and in vivo anticancer evaluation of innovative coumarin-related antiestrogens as breast cancer suppressants” (Eur J Med Chem, 2022)
pIC50: −log10 of the molar value.

Legend:
Estrogen receptor [1] = biological target: T1, Estrogen receptor (Homo sapiens, UniProt P03372)
T1 sequence (P03372 whole entry): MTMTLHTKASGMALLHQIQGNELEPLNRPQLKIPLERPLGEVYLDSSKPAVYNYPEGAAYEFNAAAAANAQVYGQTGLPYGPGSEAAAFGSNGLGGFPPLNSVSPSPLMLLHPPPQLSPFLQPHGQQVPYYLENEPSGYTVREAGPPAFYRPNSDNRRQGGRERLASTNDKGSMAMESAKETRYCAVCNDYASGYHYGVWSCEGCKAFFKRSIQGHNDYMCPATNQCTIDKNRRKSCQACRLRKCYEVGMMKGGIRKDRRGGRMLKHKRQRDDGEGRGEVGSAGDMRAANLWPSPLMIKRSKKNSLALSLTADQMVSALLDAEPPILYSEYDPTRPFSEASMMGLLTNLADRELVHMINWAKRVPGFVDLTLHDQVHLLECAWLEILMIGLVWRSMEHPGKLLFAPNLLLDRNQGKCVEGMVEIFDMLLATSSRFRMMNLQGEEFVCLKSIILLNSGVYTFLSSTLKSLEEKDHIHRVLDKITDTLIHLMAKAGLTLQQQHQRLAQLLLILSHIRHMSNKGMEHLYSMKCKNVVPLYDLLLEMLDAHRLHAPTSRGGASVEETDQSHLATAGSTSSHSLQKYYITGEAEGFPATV
Description: (§1) Antagonist activity at ERalpha (unknown origin)

Progesterone receptor = biological target: T2, Progesterone receptor (Homo sapiens, UniProt P06401)
T2 sequence (P06401 whole entry): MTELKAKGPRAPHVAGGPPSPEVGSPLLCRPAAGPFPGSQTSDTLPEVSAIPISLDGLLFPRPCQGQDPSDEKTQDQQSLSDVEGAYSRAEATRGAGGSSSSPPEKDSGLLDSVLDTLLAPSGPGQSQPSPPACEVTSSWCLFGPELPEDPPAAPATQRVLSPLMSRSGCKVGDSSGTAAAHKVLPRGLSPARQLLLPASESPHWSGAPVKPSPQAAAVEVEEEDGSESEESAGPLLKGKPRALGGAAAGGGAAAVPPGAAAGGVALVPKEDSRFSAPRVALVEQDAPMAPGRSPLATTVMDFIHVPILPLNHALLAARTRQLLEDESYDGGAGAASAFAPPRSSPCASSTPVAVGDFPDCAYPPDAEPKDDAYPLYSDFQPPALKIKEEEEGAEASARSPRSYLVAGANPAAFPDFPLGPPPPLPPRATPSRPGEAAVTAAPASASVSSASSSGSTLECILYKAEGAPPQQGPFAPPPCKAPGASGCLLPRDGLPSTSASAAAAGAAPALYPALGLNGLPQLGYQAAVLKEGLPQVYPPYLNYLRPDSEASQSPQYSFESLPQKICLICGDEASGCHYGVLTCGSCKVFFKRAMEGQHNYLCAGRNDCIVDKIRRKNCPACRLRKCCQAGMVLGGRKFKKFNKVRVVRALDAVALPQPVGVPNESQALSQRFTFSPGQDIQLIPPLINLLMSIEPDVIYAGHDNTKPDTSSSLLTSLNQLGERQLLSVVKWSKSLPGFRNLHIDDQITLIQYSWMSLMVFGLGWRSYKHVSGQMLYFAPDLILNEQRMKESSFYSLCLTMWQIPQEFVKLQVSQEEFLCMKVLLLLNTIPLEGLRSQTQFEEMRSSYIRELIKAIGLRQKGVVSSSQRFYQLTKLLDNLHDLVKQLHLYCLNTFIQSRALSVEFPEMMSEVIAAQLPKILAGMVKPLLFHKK
Description: Antagonist activity at progesterone receptor in human MCF7 cells

Estrogen receptor [2] = biological target: T1, Estrogen receptor; remark: listed apart in the source
Description: Antagonist activity at ERalpha in human MCF7 cells assessed as downregulation of ERalpha

Ishikawa = experiment: cells; details: Homo sapiens
Description: Antiproliferative activity against human Ishikawa cells

MDA-MB-231 = experiment: cells; details: Homo sapiens
Description: Antiproliferative activity against human MDA-MB-231 cells

MRC5 = experiment: cells; details: Homo sapiens
Description: Antiproliferative activity against human MRC5 cells

in vivo [3] = details: rat, po, 5 mg/kg
in vivo [4] = details: rat, po, 50 mg/kg
physchem = details: octanol/water
Description: (§2) Lipophilicity, logD of the compound by shake-flask method

MCF7 = experiment: cells; details: Homo sapiens
Description: Antiproliferative activity against human MCF7 cells

Estrogen receptor beta [5] = biological target: T3, Estrogen receptor beta (Homo sapiens, UniProt Q92731)
Description: (§3) Antagonist activity at ERbeta (unknown origin)

[6] = biological target: T4, Estrogen receptor (Homo sapiens) (UniProt P03372); details: filed as antagonist
T4 sequence (whole entry): T1 sequence (P03372 whole entry)
Description: Relative binding affinity to ERalpha (unknown origin)

[7] = biological target: T4, Estrogen receptor (Homo sapiens); details: filed as antagonist; remark: listed apart in the source
Description: as §1

Estrogen receptor beta [8] = biological target: T3, Estrogen receptor beta; details: filed as antagonist
Description: Relative binding affinity to ERbeta (unknown origin)

Estrogen receptor beta [9] = biological target: T3, Estrogen receptor beta; details: filed as antagonist; remark: listed apart in the source
Description: as §3

[10] = octanol/water
Description: as §2

T3 sequence (Q92731 whole entry): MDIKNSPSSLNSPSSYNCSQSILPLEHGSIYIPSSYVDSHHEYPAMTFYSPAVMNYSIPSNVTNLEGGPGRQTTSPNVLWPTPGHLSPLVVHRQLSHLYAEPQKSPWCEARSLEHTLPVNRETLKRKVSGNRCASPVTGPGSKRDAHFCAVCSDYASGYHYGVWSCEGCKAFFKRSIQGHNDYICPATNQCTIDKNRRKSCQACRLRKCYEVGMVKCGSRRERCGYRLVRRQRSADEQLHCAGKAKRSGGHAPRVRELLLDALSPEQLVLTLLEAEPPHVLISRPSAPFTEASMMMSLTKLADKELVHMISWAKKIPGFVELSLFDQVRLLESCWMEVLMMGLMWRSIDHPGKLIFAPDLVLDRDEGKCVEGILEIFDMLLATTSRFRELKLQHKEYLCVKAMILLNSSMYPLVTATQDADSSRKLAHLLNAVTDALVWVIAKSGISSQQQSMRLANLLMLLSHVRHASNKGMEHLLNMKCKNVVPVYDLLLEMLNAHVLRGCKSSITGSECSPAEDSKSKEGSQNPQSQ

CNCCOc1ccc(N2Nc3cc(O)ccc3-c3c2c2ccc(O)cc2oc3=O)cc1
pIC50 (Estrogen receptor [1]): 9.48 | pIC50 (Progesterone receptor): < 7.00 | pIC50 (Estrogen receptor [2]): < 7.00

CC/C(=C(\c1ccc(O)cc1)c1ccc(OCCN(C)C)cc1)c1ccccc1 [AFIMOXIFENE]
pIC50 (Ishikawa): 8.90 | pIC50 (MDA-MB-231): 7.43 | pIC50 (Progesterone receptor): < 7.00 | pIC50 (MRC5): < 7.00 | bioavailability (in vivo [3]): 87% | bioavailability (in vivo [4]): 94% | logD (physchem): 3.62 | pIC50 (MCF7): 8.92

Cc1cc(N2Nc3cc(O)ccc3-c3c2c2ccc(O)cc2oc3=O)ccc1OCCN1CCC=C(C(=O)O)C1
pIC50 (Estrogen receptor beta [5]): 7.01 | pIC50 (Progesterone receptor): < 7.00

CNCCOc1ccc(N2Nc3c(c(=O)oc4cc(O)ccc34)-c3ccc(O)cc32)cc1
log(RBA) [6]: -0.26 | pIC50 (Estrogen receptor [1]): 6.79 | Ka [7]: 36.1 nM | pIC50 (Estrogen receptor beta [5]): 7.54 | log(RBA) (Estrogen receptor beta [8]): 0.49 | Ka (Estrogen receptor beta [9]): 16.2 nM

O=C(COCN1CCCCC1)CN1Nc2c(c(=O)oc3cc(O)ccc23)-c2ccc(O)cc21
log(RBA) [6]: -0.63 | pIC50 (Estrogen receptor [1]): 6.43 | Ka [7]: 84.3 nM | pIC50 (Estrogen receptor beta [5]): 7.43 | log(RBA) (Estrogen receptor beta [8]): 0.38 | Ka (Estrogen receptor beta [9]): 20.7 nM

Cc1cc(C(=O)C2=C(c3ccc(O)cc3)COc3cc(O)ccc32)ccc1OCCN1C=Cc2cccnc2C1
pIC50 (Estrogen receptor [1]): 8.98 | pIC50 (Progesterone receptor): < 7.00 | pIC50 (Estrogen receptor [2]): < 7.00

CC(CN1CCCC2CCCNC21)OCC(=O)N1NC2c3ccc(O)cc3OCC2c2ccc(O)cc21 (configuration not stated)
pIC50 (Estrogen receptor [1]): 6.77

Cc1cc(C(=O)C2=C(c3ccc(O)cc3)COc3cc(O)ccc32)ccc1OCCN1Cc2cccnc2C1
pIC50 (Estrogen receptor [1]): 8.95 | pIC50 (Progesterone receptor): < 7.00 | pIC50 (Estrogen receptor [2]): < 7.00

O=C(c1ccc(OCCN2CCCCC2)cc1)c1c(-c2ccc(O)cc2)sc2cc(O)ccc12 [RALOXIFENE]
pIC50 (Ishikawa): 9.03 | pIC50 (MDA-MB-231): 7.03 | logD [10]: 2.37 | log(RBA) (Estrogen receptor beta [8]): 0.08 | bioavailability (in vivo [3]): 93% | bioavailability (in vivo [4]): 96% | pIC50 (MCF7): 9.05 | Ka (Estrogen receptor beta [9]): 41.2 nM

Nc1ccc(-c2c(C(=O)c3ccc(OCCN4CC(C(=O)O)=CCC4=O)cc3)c3ccc(O)cc3oc2=O)cc1
pIC50 (Estrogen receptor [1]): 7.41 | pIC50 (Progesterone receptor): < 7.00 | pIC50 (Estrogen receptor [2]): < 7.00

Cc1cc(C(=O)CNc2c(-c3ccc(O)cc3)c(=O)oc3cc(O)ccc23)ccc1OCCN1CCC=C(C(=O)O)C1
log(RBA) [6]: 2.67 | pIC50 (Ishikawa): 9.47 | pIC50 (Estrogen receptor [1]): 9.72 | Ka [7]: 0.04 nM | pIC50 (Estrogen receptor beta [5]): 6.99 | pIC50 (MDA-MB-231): 7.04 | pIC50 (Progesterone receptor): < 7.00 | pIC50 (MRC5): < 7.00 | log(RBA) (Estrogen receptor beta [8]): -0.06 | bioavailability (in vivo [3]): 91% | bioavailability (in vivo [4]): 96% | logD (physchem): 2.14 | pIC50 (MCF7): 9.60 | Ka (Estrogen receptor beta [9]): 57.6 nM | pIC50 (Estrogen receptor [2]): < 7.00

O=C(COCN1CCCCC1)CN1Nc2cc(O)ccc2-c2c1c1ccc(O)cc1oc2=O
log(RBA) [6]: 2.07 | pIC50 (Ishikawa): 9.02 | pIC50 (Estrogen receptor [1]): 9.12 | Ka [7]: 0.17 nM | pIC50 (Estrogen receptor beta [5]): 7.06 | pIC50 (MDA-MB-231): 7.38 | pIC50 (Progesterone receptor): < 7.00 | pIC50 (MRC5): < 7.00 | log(RBA) (Estrogen receptor beta [8]): 0.01 | pIC50 (MCF7): 8.99 | Ka (Estrogen receptor beta [9]): 48.5 nM | pIC50 (Estrogen receptor [2]): < 7.00

O=C(c1ccc(OCCN2C(=O)CCC2=O)cc1)c1c(-c2ccc(O)cc2)oc(=O)c2cc(O)ccc12
log(RBA) [6]: 2.07 | pIC50 (Ishikawa): 9.05 | pIC50 (Estrogen receptor [1]): 9.12 | Ka [7]: 0.17 nM | pIC50 (Estrogen receptor beta [5]): 5.24 | pIC50 (MDA-MB-231): 7.38 | pIC50 (Progesterone receptor): < 7.00 | pIC50 (MRC5): < 7.00 | log(RBA) (Estrogen receptor beta [8]): 0.19 | pIC50 (MCF7): 9.03 | Ka (Estrogen receptor beta [9]): 32.2 nM | pIC50 (Estrogen receptor [2]): < 7.00

Cc1cc(N2Nc3c(c(=O)oc4cc(O)ccc34)-c3ccc(O)cc32)ccc1OCCN1CCC=C(C(=O)O)C1
log(RBA) [6]: -0.21 | pIC50 (Estrogen receptor [1]): 6.84 | Ka [7]: 32.3 nM | pIC50 (Estrogen receptor beta [5]): 7.34 | log(RBA) (Estrogen receptor beta [8]): 0.29 | Ka (Estrogen receptor beta [9]): 25.5 nM

Nc1ccc(-c2c(C(=O)c3ccc(OCCNS(=O)(=O)O)cc3)c3ccc(O)cc3oc2=O)cc1
log(RBA) [6]: 2.36 | pIC50 (Ishikawa): 9.27 | pIC50 (Estrogen receptor [1]): 9.41 | Ka [7]: 0.08 nM | pIC50 (Estrogen receptor beta [5]): 7.10 | pIC50 (MDA-MB-231): 7.12 | pIC50 (Progesterone receptor): < 7.00 | pIC50 (MRC5): < 7.00 | log(RBA) (Estrogen receptor beta [8]): 0.05 | bioavailability (in vivo [3]): 91% | bioavailability (in vivo [4]): 94% | logD (physchem): 1.78 | pIC50 (MCF7): 9.35 | Ka (Estrogen receptor beta [9]): 44.7 nM | pIC50 (Estrogen receptor [2]): < 7.00

Nc1ccc(-c2c(C(=O)c3ccc(OCCN4CC(C(=O)O)=CCC4=O)cc3)c3ccc(O)cc3[nH]c2=O)cc1
log(RBA) [6]: 2.38 | pIC50 (Ishikawa): 9.39 | pIC50 (Estrogen receptor [1]): 7.43 | Ka [7]: 0.04 nM | pIC50 (Estrogen receptor beta [5]): 7.14 | pIC50 (MDA-MB-231): 7.11 | pIC50 (Progesterone receptor): < 7.00 | pIC50 (MRC5): < 7.00 | log(RBA) (Estrogen receptor beta [8]): 0.09 | bioavailability (in vivo [3]): 88% | bioavailability (in vivo [4]): 91% | logD (physchem): 1.86 | pIC50 (MCF7): 9.36 | Ka (Estrogen receptor beta [9]): 40.7 nM | pIC50 (Estrogen receptor [2]): < 7.00

CC(CN1CCCC2CCCNC21)OCC(=O)N1Nc2cc(O)ccc2C2COc3cc(O)ccc3C21 (configuration not stated)
log(RBA) [6]: 2.12 | pIC50 (Ishikawa): 9.11 | pIC50 (Estrogen receptor [1]): 9.17 | Ka [7]: 0.15 nM | pIC50 (Estrogen receptor beta [5]): 7.17 | pIC50 (MDA-MB-231): 7.29 | pIC50 (Progesterone receptor): < 7.00 | pIC50 (MRC5): < 7.00 | log(RBA) (Estrogen receptor beta [8]): 0.12 | pIC50 (MCF7): 9.14 | Ka (Estrogen receptor beta [9]): 37.7 nM | pIC50 (Estrogen receptor [2]): < 7.00

O=C(c1ccc(OCCN2C=Cc3ccccc3C2)cc1)c1c(-c2ccc(O)cc2)oc(=O)c2cc(O)ccc12
log(RBA) [6]: 2.1 | pIC50 (Ishikawa): 9.12 | pIC50 (Estrogen receptor [1]): 9.15 | Ka [7]: 0.16 nM | pIC50 (Estrogen receptor beta [5]): 7.37 | pIC50 (MDA-MB-231): 7.38 | pIC50 (Progesterone receptor): < 7.00 | pIC50 (MRC5): < 7.00 | log(RBA) (Estrogen receptor beta [8]): 0.32 | pIC50 (MCF7): 9.10 | Ka (Estrogen receptor beta [9]): 24 nM | pIC50 (Estrogen receptor [2]): < 7.00
